Results as given in ChEMBL document CHEMBL5608181, “Discovery of indazole inhibitors for heat shock protein 90 as anti-cancer agents” (Eur J Med Chem, 2024).
Active and inactive are the calls of the source. The calls are words filed in the database; no cut-off is given here.

Experiments:
[1] = Stability in human plasma assessed as compound remaining incubated for 120 mins; type: ADME, cell-free; conditions: read-out: Stability
[2] = MRTinfinity in Sprague-Dawley rat at 10 mg/kg, po; type: ADME, organism-based; conditions: in vivo
CYP3A4 = CYP3A4 (Homo sapiens, UniProt P08684); assay: Inhibition of CYP3A4 (unknown origin) at 10 uM relative to control; type: ADME
CYP3A4, sequence (P08684 whole entry): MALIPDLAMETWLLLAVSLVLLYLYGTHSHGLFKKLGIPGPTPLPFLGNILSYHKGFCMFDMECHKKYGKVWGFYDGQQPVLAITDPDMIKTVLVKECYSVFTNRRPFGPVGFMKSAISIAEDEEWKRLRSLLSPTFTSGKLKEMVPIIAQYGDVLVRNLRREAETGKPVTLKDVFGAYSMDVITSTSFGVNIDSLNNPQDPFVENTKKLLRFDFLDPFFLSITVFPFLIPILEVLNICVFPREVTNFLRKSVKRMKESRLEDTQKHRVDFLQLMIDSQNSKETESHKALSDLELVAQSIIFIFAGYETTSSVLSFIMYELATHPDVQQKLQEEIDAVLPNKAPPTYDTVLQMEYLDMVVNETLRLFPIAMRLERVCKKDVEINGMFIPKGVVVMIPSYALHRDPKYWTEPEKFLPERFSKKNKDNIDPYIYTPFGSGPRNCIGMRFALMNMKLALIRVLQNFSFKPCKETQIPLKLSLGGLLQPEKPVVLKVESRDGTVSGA

[3] = Genotoxicity in Salmonella typhimurium TA98 in presence of rat liver S9 fraction by Ames test; type: toxicity, subcellular; conditions: salmonella enterica subsp. enterica serovar typhimurium
BT-474 [4] = assay: Downregulation of AKT expression in human Trastuzumab-sensitive BT474 cell at 10 uM measured upto 72 hrs by Western blot analysis; type: functional, cell-based
[5] = Volume of distribution in Sprague-Dawley rat at 10 mg/kg, po; type: ADME, organism-based; conditions: in vivo
[6] = Half life in Sprague-Dawley rat at 5 mg/kg, iv; type: ADME, organism-based; conditions: in vivo
[7] = system: Trastuzumab-resistant JIMT-1; assay: Antitumor activity against human Trastuzumab-resistant JIMT-1 cell xenografted in female BALB/c nude mouse assessed as inhibition of tumor volume at 20 mg/kg, ip administered every other day for 40 days; type: functional, organism-based; conditions: time 40.0 day
[8] = Metabolic stability in human liver microsomes assessed as parent compound remaining measured after 30 mins; type: ADME, Microsome; conditions: read-out: Stability
[9] = Clearance in Sprague-Dawley rat at 5 mg/kg, iv; type: ADME, organism-based; conditions: in vivo
CYP2D6 = CYP2D6 (Homo sapiens, UniProt P10635); assay: Inhibition of CYP2D6 (unknown origin) at 10 uM relative to control; type: ADME
CYP2D6, sequence (P10635 whole entry): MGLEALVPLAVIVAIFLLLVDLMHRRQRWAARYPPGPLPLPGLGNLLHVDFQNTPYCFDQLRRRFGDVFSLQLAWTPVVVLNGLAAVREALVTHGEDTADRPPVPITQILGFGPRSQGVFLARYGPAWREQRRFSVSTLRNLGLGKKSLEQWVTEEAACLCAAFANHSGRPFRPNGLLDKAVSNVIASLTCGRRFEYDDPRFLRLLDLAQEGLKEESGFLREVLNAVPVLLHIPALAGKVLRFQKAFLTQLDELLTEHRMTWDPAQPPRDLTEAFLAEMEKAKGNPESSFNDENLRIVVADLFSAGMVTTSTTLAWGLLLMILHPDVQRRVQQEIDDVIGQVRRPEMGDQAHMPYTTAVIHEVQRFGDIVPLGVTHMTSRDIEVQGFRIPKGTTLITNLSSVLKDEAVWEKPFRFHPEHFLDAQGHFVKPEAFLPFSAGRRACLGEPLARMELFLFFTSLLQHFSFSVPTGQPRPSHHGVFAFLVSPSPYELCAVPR

[10] = AUClast in Sprague-Dawley rat at 10 mg/kg, po; type: ADME, organism-based; conditions: in vivo
CYP2C9 = CYP2C9 (Homo sapiens, UniProt P11712); assay: Inhibition of CYP2C9 (unknown origin) at 10 uM relative to control; type: ADME
CYP2C9, sequence (P11712 whole entry): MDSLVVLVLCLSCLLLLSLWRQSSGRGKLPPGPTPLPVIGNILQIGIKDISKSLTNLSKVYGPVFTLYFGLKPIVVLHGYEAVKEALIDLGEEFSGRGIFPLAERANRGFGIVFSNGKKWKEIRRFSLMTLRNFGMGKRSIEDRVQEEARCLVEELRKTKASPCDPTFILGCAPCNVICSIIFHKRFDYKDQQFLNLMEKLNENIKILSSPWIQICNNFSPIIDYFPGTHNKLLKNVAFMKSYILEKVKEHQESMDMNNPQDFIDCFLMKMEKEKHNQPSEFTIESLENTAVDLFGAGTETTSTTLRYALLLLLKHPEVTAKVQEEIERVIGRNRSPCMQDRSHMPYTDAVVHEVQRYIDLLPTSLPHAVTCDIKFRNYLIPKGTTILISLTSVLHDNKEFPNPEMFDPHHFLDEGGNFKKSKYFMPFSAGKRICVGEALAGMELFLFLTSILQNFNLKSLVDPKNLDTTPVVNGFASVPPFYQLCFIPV

[11] = Stability in rat plasma assessed as compound remaining incubated for 120 mins; type: ADME, cell-free; conditions: read-out: Stability
[12] = molecular target: Heat shock protein HSP 90-alpha (Homo sapiens) (UniProt P07900); assay: Inhibition of HSP90alpha in human Trastuzumab-resistant JIMT-1 cell assessed as reduction in HER2 phosphorylation level at Tyr1221/1222 residues at 10 uM measured upto 72 hrs by Western blot analysis; type: cell-based
[13] = molecular target: Heat shock protein HSP 90-alpha (Homo sapiens) (UniProt P07900); assay: Inhibition of PPID binding to C-terminal Hsp90-alpha CTD (unknown origin) at 500 uM by Alpha screen microplate reader analysis
hERG (KCNH2) [14] = molecular target: T1, hERG (KCNH2) (Homo sapiens, UniProt Q12809); assay: Inhibition of human ERG expressed in CHO cells at 3 uM by whole-cell patch clamp assay relative to control; type: toxicity, cell-based; conditions: CHO cells expressing hERG
T1 sequence (Q12809 whole entry): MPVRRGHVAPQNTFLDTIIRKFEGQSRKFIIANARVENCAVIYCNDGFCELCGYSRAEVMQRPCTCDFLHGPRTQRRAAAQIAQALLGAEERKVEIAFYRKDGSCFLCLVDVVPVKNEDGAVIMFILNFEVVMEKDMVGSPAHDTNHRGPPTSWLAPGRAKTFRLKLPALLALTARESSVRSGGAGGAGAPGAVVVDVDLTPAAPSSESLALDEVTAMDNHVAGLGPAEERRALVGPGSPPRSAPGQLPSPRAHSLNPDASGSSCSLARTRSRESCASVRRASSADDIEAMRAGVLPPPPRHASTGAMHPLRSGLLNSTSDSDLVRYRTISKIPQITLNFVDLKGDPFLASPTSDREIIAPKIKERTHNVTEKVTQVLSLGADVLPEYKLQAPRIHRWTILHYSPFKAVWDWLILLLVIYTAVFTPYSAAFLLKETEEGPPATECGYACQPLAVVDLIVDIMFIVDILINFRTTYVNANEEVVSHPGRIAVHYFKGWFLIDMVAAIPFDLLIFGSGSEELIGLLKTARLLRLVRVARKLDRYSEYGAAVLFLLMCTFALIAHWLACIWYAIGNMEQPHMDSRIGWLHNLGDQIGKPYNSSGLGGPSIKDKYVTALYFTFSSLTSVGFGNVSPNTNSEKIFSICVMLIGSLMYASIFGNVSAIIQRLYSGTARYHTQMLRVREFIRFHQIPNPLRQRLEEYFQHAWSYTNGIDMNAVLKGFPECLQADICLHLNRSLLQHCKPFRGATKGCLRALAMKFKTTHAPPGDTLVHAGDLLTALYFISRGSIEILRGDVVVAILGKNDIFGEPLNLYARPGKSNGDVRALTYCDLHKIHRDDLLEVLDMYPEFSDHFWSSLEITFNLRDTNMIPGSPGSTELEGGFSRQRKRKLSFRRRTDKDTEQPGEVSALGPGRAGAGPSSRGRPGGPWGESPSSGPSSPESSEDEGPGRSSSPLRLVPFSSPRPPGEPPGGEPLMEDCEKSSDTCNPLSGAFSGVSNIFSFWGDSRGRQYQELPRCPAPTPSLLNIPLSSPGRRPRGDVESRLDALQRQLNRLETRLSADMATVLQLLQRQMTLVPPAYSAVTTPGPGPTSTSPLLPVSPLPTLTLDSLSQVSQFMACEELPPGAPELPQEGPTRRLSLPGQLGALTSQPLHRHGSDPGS

CYP2C19 = CYP2C19 (Homo sapiens, UniProt P33261); assay: Inhibition of CYP2C19 (unknown origin) at 10 uM relative to control; type: ADME
CYP2C19, sequence (P33261 whole entry): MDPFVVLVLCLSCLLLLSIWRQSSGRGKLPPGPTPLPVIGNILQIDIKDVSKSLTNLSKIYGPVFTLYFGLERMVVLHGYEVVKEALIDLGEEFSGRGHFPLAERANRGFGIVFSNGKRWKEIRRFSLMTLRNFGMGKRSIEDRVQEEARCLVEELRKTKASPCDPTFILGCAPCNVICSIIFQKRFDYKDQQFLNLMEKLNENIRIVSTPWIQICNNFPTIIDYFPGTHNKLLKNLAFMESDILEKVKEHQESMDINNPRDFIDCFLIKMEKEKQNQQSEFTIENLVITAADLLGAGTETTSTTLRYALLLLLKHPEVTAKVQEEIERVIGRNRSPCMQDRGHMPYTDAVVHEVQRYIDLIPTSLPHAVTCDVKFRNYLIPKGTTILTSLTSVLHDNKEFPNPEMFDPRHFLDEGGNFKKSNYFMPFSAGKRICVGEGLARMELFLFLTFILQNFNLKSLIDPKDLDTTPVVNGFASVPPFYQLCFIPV

[15] = system: Trastuzumab-resistant JIMT-1; assay: Downregulation of cyclinD1 level in human Trastuzumab-resistant JIMT-1 cell at 10 uM measured upto 72 hrs by Western blot analysis; type: functional, cell-based
BT-474 [16] = assay: Downregulation of cyclinD1 level in human Trastuzumab-sensitive BT474 cell at 10 uM measured upto 72 hrs by Western blot analysis; type: functional, cell-based
[17] = system: Trastuzumab-resistant JIMT-1; assay: Antitumor activity against human Trastuzumab-resistant JIMT-1 cell xenografted in female BALB/c nude mouse assessed as inhibition of tumor burden at 20 mg/kg, ip administered every other day for 40 days; type: functional, organism-based; conditions: time 40.0 day
[18] = system: Trastuzumab-resistant JIMT-1; assay: Downregulation of HER2 expression in human Trastuzumab-resistant JIMT-1 cell at 10 uM measured upto 72 hrs by Western blot analysis; type: functional, cell-based
[19] = Antiproliferative activity against human Trastuzumab-sensitive BT474 cell assessed as inhibition of cell viability measured after 72 hrs by CellTiter 96 Aqueous One Solution Cell Proliferation Assay; type: functional, cell-based; conditions: BT-474, 72 h
[20] = system: Trastuzumab-resistant JIMT-1; assay: Downregulation of survivin protein level in human Trastuzumab-resistant JIMT-1 cell at 10 uM measured upto 72 hrs by Western blot analysis; type: functional, cell-based
[21] = AUC/dose in Sprague-Dawley rat at 10 mg/kg, po; type: ADME, organism-based; conditions: in vivo
hERG (KCNH2) [22] = molecular target: T1, hERG (KCNH2); assay: Inhibition of human ERG expressed in CHO cells at 30 uM by whole-cell patch clamp assay relative to control; type: toxicity, cell-based; conditions: CHO cells expressing hERG
[23] = C0 in Sprague-Dawley rat at 5 mg/kg, iv; type: ADME, organism-based; conditions: in vivo
BT-474 [24] = assay: Downregulation of HER2 expression in human Trastuzumab-sensitive BT474 cell at 10 uM measured upto 72 hrs by Western blot analysis; type: functional, cell-based
HEK293 = assay: Cytotoxicity against HEK293 cells assessed as reduction in cell viability at 10 uM measured after 72 hrs by CellTiter 96 Aqueous One Solution Cell Proliferation Assay; type: toxicity, cell-based; conditions: human, hek293, 72 h
[25] = Toxicity in female BALB/c nude mouse assessed as effect on body weight at 20 mg/kg, ip administered every other day for 40 days; type: organism-based; conditions: in vivo, 960 h, time 40 day
[26] = Volume of distribution in Sprague-Dawley rat at 5 mg/kg, iv; type: ADME, organism-based; conditions: in vivo
[27] = AUCinfinity in Sprague-Dawley rat at 10 mg/kg, po; type: ADME, organism-based; conditions: in vivo
[28] = Tmax in Sprague-Dawley rat at 10 mg/kg, po; type: ADME, organism-based; conditions: in vivo
[29] = AUCinfinity in Sprague-Dawley rat at 5 mg/kg, iv; type: ADME, organism-based; conditions: in vivo
BT-474 [30] = assay: Downregulation of survivin protein level in human Trastuzumab-sensitive BT474 cell at 10 uM measured upto 72 hrs by Western blot analysis; type: functional, cell-based
[31] = system: Trastuzumab-resistant JIMT-1; assay: Downregulation of AKT expression in human Trastuzumab-resistant JIMT-1 cell at 10 uM measured upto 72 hrs by Western blot analysis; type: functional, cell-based
[32] = MRTinfinity in Sprague-Dawley rat at 5 mg/kg, iv; type: ADME, organism-based; conditions: in vivo
[33] = Genotoxicity in Salmonella typhimurium TA98 in absence of rat liver S9 fraction by Ames test; type: toxicity; conditions: salmonella enterica subsp. enterica serovar typhimurium
[34] = Genotoxicity in Salmonella typhimurium TA100 in absence of rat liver S9 fraction by Ames test; type: toxicity; conditions: salmonella enterica subsp. enterica serovar typhimurium
BT-474 [35] = assay: Antiproliferative activity against human BT-474 cells assessed as inhibition of cell viability at 10 uM measured after 72 hrs by CellTiter 96 Aqueous One Solution Cell Proliferation Assay relative to control; type: functional
[36] = molecular target: Heat shock protein HSP 90-alpha (Homo sapiens) (UniProt P07900); assay: Inhibition of HSP90alpha in human Trastuzumab-sensitive BT474 cells assessed as reduction in HER2 phosphorylation level at Tyr1221/1222 residues at 10 uM measured upto 72 hrs by Western blot analysis; type: cell-based
hERG (KCNH2) [37] = molecular target: T1, hERG (KCNH2); assay: Inhibition of human ERG at 10 uM by fluorescence polarization assay relative to control
[38] = Clearance in Sprague-Dawley rat at 10 mg/kg, po; type: ADME, organism-based; conditions: in vivo
CYP1A2 = molecular target: T2, CYP1A2 (Homo sapiens, UniProt P05177); assay: Inhibition of CYP1A2 (unknown origin) at 10 uM relative to control; type: ADME
T2 sequence (P05177 whole entry): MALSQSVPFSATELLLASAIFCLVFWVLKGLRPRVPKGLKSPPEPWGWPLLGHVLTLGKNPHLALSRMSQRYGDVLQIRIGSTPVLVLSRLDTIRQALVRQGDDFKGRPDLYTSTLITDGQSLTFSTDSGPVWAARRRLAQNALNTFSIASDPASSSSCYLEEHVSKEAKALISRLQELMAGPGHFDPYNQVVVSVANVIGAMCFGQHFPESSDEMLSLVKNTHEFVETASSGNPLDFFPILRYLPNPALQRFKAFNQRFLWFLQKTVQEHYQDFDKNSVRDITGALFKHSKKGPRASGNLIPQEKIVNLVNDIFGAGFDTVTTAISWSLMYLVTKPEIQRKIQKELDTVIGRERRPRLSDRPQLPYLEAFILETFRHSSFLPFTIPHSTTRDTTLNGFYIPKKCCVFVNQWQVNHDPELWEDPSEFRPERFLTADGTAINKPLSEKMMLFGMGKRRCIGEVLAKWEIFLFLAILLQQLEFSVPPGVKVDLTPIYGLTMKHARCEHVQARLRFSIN

[39] = AUC/dose in Sprague-Dawley rat at 5 mg/kg, iv; type: ADME, organism-based; conditions: in vivo
Homo sapiens = organism: Homo sapiens; assay: Inhibition of N-terminal HSP90 (unknown origin) at 10 uM by AlphaLISA assay
[40] = AUClast in Sprague-Dawley rat at 5 mg/kg, iv; type: ADME, organism-based; conditions: in vivo
[41] = system: Trastuzumab-resistant JIMT-1; assay: Antitumor activity against human Trastuzumab-resistant JIMT-1 cell xenografted in female BALB/c nude mouse assessed as inhibition of tumor weight at 20 mg/kg, ip administered every other day for 40 days; type: functional, organism-based; conditions: time 40.0 day
[42] = molecular target: Heat shock protein HSP 90-alpha (Homo sapiens) (UniProt P07900); assay: Inhibition of HSP90alpha in human Trastuzumab-resistant JIMT-1 cell assessed as reduction in Akt phosphorylation level at Ser473 residues at 10 uM measured upto 72 hrs by Western blot analysis; type: cell-based
[43] = Cmax in Sprague-Dawley rat at 10 mg/kg, po; type: ADME, organism-based; conditions: in vivo
[44] = system: Trastuzumab-resistant JIMT-1; assay: Antiproliferative activity against human Trastuzumab-resistant JIMT-1 cell assessed as inhibition of cell viability measured after 72 hrs by CellTiter 96 Aqueous One Solution Cell Proliferation Assay; type: functional, cell-based; conditions: Trastuzumab-resistant JIMT-1, 72 h
[45] = Genotoxicity in Salmonella typhimurium TA100 in presence of rat liver S9 fraction by Ames test; type: toxicity, subcellular; conditions: salmonella enterica subsp. enterica serovar typhimurium
JIMT-1 = assay: Antiproliferative activity against human JIMT-1 cells assessed as inhibition of cell viability at 10 uM measured after 72 hrs by CellTiter 96 Aqueous One Solution Cell Proliferation Assay relative to control; type: functional
[46] = Half life in Sprague-Dawley rat at 10 mg/kg, po; type: ADME, organism-based; conditions: in vivo
[47] = molecular target: Heat shock protein HSP 90-alpha (Homo sapiens) (UniProt P07900); assay: Inhibition of HSP90alpha in human Trastuzumab-sensitive BT474 cell assessed as reduction in Akt phosphorylation level at Ser473 residues at 10 uM measured upto 72 hrs by Western blot analysis; type: cell-based
[48] = Metabolic stability in rat liver microsomes assessed as parent compound remaining measured after 30 mins; type: ADME, Microsome; conditions: read-out: Stability
[49] = Oral bioavailability in Sprague-Dawley rat at 10 mg/kg; type: ADME, organism-based; conditions: in vivo

## COc1c(C(=O)Nc2ccc3c(C)nn(CCC4CCN(C)CC4)c3c2)ccc2c1C=CC(C)(C)O2
[1]
  remaining at 2 h: 100%
[2]
  MRT inf: 15 h
CYP3A4
  inhibition at 10 µM: 73%
[3]
  Activity: Non-Toxic
BT-474 [4]
  Activity: Active
[5]
  Vd: 3.6 L/kg
[6]
  half-life: 264 min
[7]
  Activity: Active
[8]
  remaining at 0.5 h: 94.5%
[9]
  clearance: 84.5 mL/min
CYP2D6
  inhibition at 10 µM: 55.3%
[10]
  AUC(0-t): 1030 ng·h/mL
CYP2C9
  inhibition at 10 µM: 78.2%
[11]
  remaining at 2 h: 98.3%
[12]
  inhibition: Active
[13]
  inhibition: Active
hERG (KCNH2) [14]
  inhibition at 3 µM: 30.4%
CYP2C19
  inhibition at 10 µM: 56.3%
[15]
  Activity: Active
BT-474 [16]
  Activity: Active
[17]
  Activity: Active
[18]
  Activity: Active
[19]
  IC50: 6.86 µM
[20]
  Activity: Active
[21]
  AUC/dose: 103.2 ng·h/mL
hERG (KCNH2) [22]
  inhibition at 30 µM: 87.1%
[23]
  C0: 342 ng/mL
BT-474 [24]
  Activity: Active
HEK293
  Activity: Toxic
[25]
  Activity: Non-Toxic
[26]
  Vd: 31.2 L/kg
[27]
  AUC: 2957 ng·h/mL
[28]
  Tmax: 4 h
[29]
  AUC: 1059 ng·h/mL
BT-474 [30]
  Activity: Active
[31]
  Activity: Active
[32]
  MRT inf: 5.4 h
[33]
  Activity: Non-Toxic
[34]
  Activity: Non-Toxic
BT-474 [35]
  inhibition at 10 µM: < 20%
[36]
  inhibition: Active
hERG (KCNH2) [37]
  inhibition at 10 µM: 57%
[38]
  CL/F: 47.3 mL/min
CYP1A2
  inhibition at 10 µM: > 100%
[39]
  AUC/dose: 154.3 ng·h/mL
Homo sapiens
  inhibition: inactive
[40]
  AUC(0-t): 771 ng·h/mL
[41]
  Activity: Active
[42]
  inhibition: Active
[43]
  Cmax: 159 ng/mL
[44]
  IC50: 4.42 µM
[45]
  Activity: Non-Toxic
JIMT-1
  inhibition at 10 µM: < 20%
[46]
  half-life: 576 min
[47]
  inhibition: Active
[48]
  remaining at 0.5 h: 62.8%
[49]
  F: 66.9%
